Measured values from PMC8961646, “Fibroblast Activation Protein Specific Optical Imaging in Non-Small Cell Lung Cancer” (Frontiers in Oncology, 2022).
Non-standard residues stand in square brackets, D forms with d. Residues, ends and D or L forms follow the SMILES beside them. *: point of attachment. 5FAM = O=C1OC2(c3ccc(O)cc3Oc3cc(O)ccc32)c2ccc(C(=O)*)cc21; MethylRed = CN(C)c1ccc(/N=N/c2ccccc2C(=O)*)cc1; AEEA = NCCOCCOCC(=O)O; βAla = NCCC(=O)O

Biological target: T1, rhFAP (Homo sapiens, UniProt Q12884)
T1 construct: purchased R&D Systems
T1 sequence (Q12884 26-760 limits assumed): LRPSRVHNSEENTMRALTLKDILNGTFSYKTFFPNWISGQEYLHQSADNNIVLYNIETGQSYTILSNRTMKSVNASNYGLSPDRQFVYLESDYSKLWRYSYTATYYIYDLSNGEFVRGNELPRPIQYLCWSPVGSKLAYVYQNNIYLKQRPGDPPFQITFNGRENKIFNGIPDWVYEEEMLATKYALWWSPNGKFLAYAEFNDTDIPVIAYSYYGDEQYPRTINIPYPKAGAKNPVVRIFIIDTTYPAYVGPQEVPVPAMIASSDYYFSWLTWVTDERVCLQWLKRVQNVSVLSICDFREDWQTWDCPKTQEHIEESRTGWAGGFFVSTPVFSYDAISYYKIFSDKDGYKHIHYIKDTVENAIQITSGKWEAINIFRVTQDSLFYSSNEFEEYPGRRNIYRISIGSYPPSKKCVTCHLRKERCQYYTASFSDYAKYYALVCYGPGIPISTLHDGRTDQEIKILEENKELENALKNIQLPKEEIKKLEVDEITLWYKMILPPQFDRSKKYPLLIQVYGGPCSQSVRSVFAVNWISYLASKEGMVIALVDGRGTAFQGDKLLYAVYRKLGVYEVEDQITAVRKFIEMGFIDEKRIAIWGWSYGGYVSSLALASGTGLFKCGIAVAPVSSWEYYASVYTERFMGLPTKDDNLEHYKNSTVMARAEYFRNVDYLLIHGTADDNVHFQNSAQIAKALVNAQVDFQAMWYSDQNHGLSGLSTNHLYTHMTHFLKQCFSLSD
Test: Probe cleavage by recombinant human FAP (fluorescence plate assay, MALDI confirmation)
Type: biochemical
Conditions: probe 5 µM; for Cleavage by rhFAP (fluorescence signal): rhFAP 0.1 µg/ml, TRIS buffer (pH 7.5), 20 µl, read 480/530 nm, n=3 run in triplicate; for FAP specificity (over PREP): rhFAP compared with rhPREP, each 0.1 µg/ml

SMILES	Cleavage by rhFAP (fluorescence signal)	FAP specificity (over PREP)
C[C@@H](NC(=O)[C@@H](N)CCCCNC(=O)c1ccccc1/N=N/c1ccc(N(C)C)cc1)C(=O)N1CCC[C@H]1C(=O)N[C@@H](CO)C(=O)N[C@@H](CCCCNC(=O)c1ccc2c(c1)C(=O)OC21c2ccc(O)cc2Oc2cc(O)ccc21)C(=O)NCCOCCOCC(=O)N[C@H](CCCCN)C(=O)NCCOCCOCC(=O)N[C@H](CCCCN)C(=O)NCCOCCOCC(=O)N[C@H](CCCCN)C(N)=O [FAP2BD-Ala] (H-K(MethylRed)[dA]PSK(5FAM)[AEEA][dK][AEEA][dK][AEEA][dK]-NH2)	reduced signal	FAP specificity over PREP
CN(C)c1ccc(/N=N/c2ccccc2C(=O)NCCCC[C@H](N)C(=O)N[C@H](Cc2ccc(O)cc2)C(=O)N2CCC[C@H]2C(=O)N[C@@H](CO)C(=O)N[C@@H](CCCCNC(=O)c2ccc3c(c2)C(=O)OC32c3ccc(O)cc3Oc3cc(O)ccc32)C(=O)NCCOCCOCC(=O)N[C@H](CCCCN)C(=O)NCCOCCOCC(=O)N[C@H](CCCCN)C(=O)NCCOCCOCC(=O)N[C@H](CCCCN)C(N)=O)cc1 [FAP2ED-Tyr] (H-K(MethylRed)[dY]PSK(5FAM)[AEEA][dK][AEEA][dK][AEEA][dK]-NH2)	loss of FAP activity	
C[C@H](O)[C@@H](NC(=O)[C@@H](N)CCCCNC(=O)c1ccccc1/N=N/c1ccc(N(C)C)cc1)C(=O)N1CCC[C@H]1C(=O)N[C@@H](CO)C(=O)N[C@@H](CCCCNC(=O)c1ccc2c(c1)C(=O)OC21c2ccc(O)cc2Oc2cc(O)ccc21)C(=O)NCCOCCOCC(=O)N[C@H](CCCCN)C(=O)NCCOCCOCC(=O)N[C@H](CCCCN)C(=O)NCCOCCOCC(=O)N[C@H](CCCCN)C(N)=O [FAP2DD-Thr] (H-K(MethylRed)[dT]PSK(5FAM)[AEEA][dK][AEEA][dK][AEEA][dK]-NH2)	reduced signal	FAP specificity over PREP
CN(C)c1ccc(/N=N/c2ccccc2C(=O)NCCCC[C@H](N)C(=O)NCCC(=O)N2CCC[C@H]2C(=O)N[C@@H](CO)C(=O)N[C@@H](CCCCNC(=O)c2ccc3c(c2)C(=O)OC32c3ccc(O)cc3Oc3cc(O)ccc32)C(=O)NCCOCCOCC(=O)N[C@H](CCCCN)C(=O)NCCOCCOCC(=O)N[C@H](CCCCN)C(=O)NCCOCCOCC(=O)N[C@H](CCCCN)C(N)=O)cc1 [FAP2Fβ-Ala] (H-K(MethylRed)[βAla]PSK(5FAM)[AEEA][dK][AEEA][dK][AEEA][dK]-NH2)	reduced signal	FAP specificity over PREP
